Assay results as given in PubChem BioAssay AID1963972 (Molecular Pharmacology Branch, DTP, NCI, 2024).

System: 945468-187-T-J2-PDC spheroids viability
Assay: Anticancer human tumor 945468-187-T-J2-PDC patient-derived rectal carcinoma cell line growth inhibition [PI3K]
Settings: spheroids with HUVEC and MSC; for IC50: curve of first compound; for viability, T/C: stronger effect = lower value; active means viability on the fitted dose curve at most 10% of control; inactive means the rest
Summary of the method: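 Agents were dosed from a top concentration near clinical Cmax (otherwise 10 microM) in half-log decrements, alone or combined with PI3K inhibitors. The spheroids contain tumor cells plus endothelial (HUVEC) and MSC stroma; viability is measured.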

[1] = second compound 0.0316 µM, first compound 0.0316 µM
[2] = second compound 0.0316 µM, first compound 0.1 µM
[3] = second compound 0.1 µM, first compound 0.0316 µM
[4] = second compound 0.1 µM, first compound 0.1 µM
[5] = second compound 0.316 µM, first compound 0.0316 µM
[6] = second compound 0.316 µM, first compound 0.1 µM
[7] = second compound 1 µM, first compound 0.0316 µM
[8] = second compound 1 µM, first compound 0.1 µM
[9] = second compound 3.16 µM, first compound 0.0316 µM
[10] = second compound 3.16 µM, first compound 0.1 µM
[11] = second compound 10 µM, first compound 0.0316 µM
[12] = second compound 10 µM, first compound 0.1 µM
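Further: spheroids exposed to compounds for seven days before reading.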

CC(C)n1nc(-c2ccc3oc(N)nc3c2)c2c(N)ncnc21 + CC(Nc1ncnc2nc[nH]c12)c1cc2cccc(Cl)c2c(=O)n1-c1ccccc1
> 0.1 µM: IC50 (second compound 0.0316 µM) | IC50 (second compound 0.1 µM) | IC50 (second compound 0.316 µM) | IC50 (second compound 1 µM) | IC50 (second compound 3.16 µM) | IC50 (second compound 10 µM)
inactive: viability, T/C (second compound 0.0316 µM, first compound 0.000316 µM) 93.8% | viability, T/C (second compound 0.0316 µM, first compound 0.001 µM) 87.3% | viability, T/C (second compound 0.0316 µM, first compound 0.00316 µM) 96.4% | viability, T/C (second compound 0.0316 µM, first compound 0.01 µM) 107% | viability, T/C [1] 117% | viability, T/C [2] 62.8% | viability, T/C (second compound 0.1 µM, first compound 0.000316 µM) 96.2% | viability, T/C (second compound 0.1 µM, first compound 0.001 µM) 94.3% | viability, T/C (second compound 0.1 µM, first compound 0.00316 µM) 99.4% | viability, T/C (second compound 0.1 µM, first compound 0.01 µM) 84.2% | viability, T/C [3] 115% | viability, T/C [4] 73.5% | viability, T/C (second compound 0.316 µM, first compound 0.000316 µM) 97.1% | viability, T/C (second compound 0.316 µM, first compound 0.001 µM) 89% | viability, T/C (second compound 0.316 µM, first compound 0.00316 µM) 94.7% | viability, T/C (second compound 0.316 µM, first compound 0.01 µM) 134% | viability, T/C [5] 96.1% | viability, T/C [6] 71% | viability, T/C (second compound 1 µM, first compound 0.000316 µM) 87.6% | viability, T/C (second compound 1 µM, first compound 0.001 µM) 136% | viability, T/C (second compound 1 µM, first compound 0.00316 µM) 95.8% | viability, T/C (second compound 1 µM, first compound 0.01 µM) 93.2% | viability, T/C [7] 78.2% | viability, T/C [8] 55% | viability, T/C (second compound 3.16 µM, first compound 0.000316 µM) 85.5% | viability, T/C (second compound 3.16 µM, first compound 0.001 µM) 107% | viability, T/C (second compound 3.16 µM, first compound 0.00316 µM) 90.3% | viability, T/C (second compound 3.16 µM, first compound 0.01 µM) 106% | viability, T/C [9] 92.9% | viability, T/C [10] 62.3% | viability, T/C (second compound 10 µM, first compound 0.000316 µM) 109% | viability, T/C (second compound 10 µM, first compound 0.001 µM) 84.5% | viability, T/C (second compound 10 µM, first compound 0.00316 µM) 108% | viability, T/C (second compound 10 µM, first compound 0.01 µM) 88.4% | viability, T/C [11] 78.2% | viability, T/C [12] 82.8%

CCCS(=O)(=O)Nc1ccc(F)c(C(=O)c2c[nH]c3ncc(-c4ccc(Cl)cc4)cc23)c1F + CC(Nc1ncnc2nc[nH]c12)c1cc2cccc(Cl)c2c(=O)n1-c1ccccc1
5.63 µM: IC50 (second compound 10 µM)
4.52 µM: IC50 (second compound 0.0316 µM)
inactive: viability, T/C [1] 105% | viability, T/C [2] 103% | viability, T/C (second compound 0.0316 µM, first compound 0.316 µM) 104% | viability, T/C (second compound 0.0316 µM, first compound 1 µM) 89.2% | viability, T/C (second compound 0.0316 µM, first compound 3.16 µM) 73.4% | viability, T/C [3] 132% | viability, T/C [4] 83.2% | viability, T/C (second compound 0.1 µM, first compound 0.316 µM) 89% | viability, T/C (second compound 0.1 µM, first compound 1 µM) 93.8% | viability, T/C (second compound 0.1 µM, first compound 3.16 µM) 83.8% | viability, T/C [5] 107% | viability, T/C [6] 110% | viability, T/C (second compound 0.316 µM, first compound 0.316 µM) 85.2% | viability, T/C (second compound 0.316 µM, first compound 1 µM) 107% | viability, T/C (second compound 0.316 µM, first compound 3.16 µM) 89.6% | viability, T/C [7] 104% | viability, T/C [8] 99.2% | viability, T/C (second compound 1 µM, first compound 0.316 µM) 93% | viability, T/C (second compound 1 µM, first compound 1 µM) 99.6% | viability, T/C (second compound 1 µM, first compound 3.16 µM) 108% | viability, T/C [9] 98.6% | viability, T/C [10] 106% | viability, T/C (second compound 3.16 µM, first compound 0.316 µM) 100% | viability, T/C (second compound 3.16 µM, first compound 1 µM) 98.8% | viability, T/C (second compound 3.16 µM, first compound 3.16 µM) 113% | viability, T/C [11] 98.2% | viability, T/C [12] 93.9% | viability, T/C (second compound 10 µM, first compound 0.316 µM) 101% | viability, T/C (second compound 10 µM, first compound 1 µM) 95.6% | viability, T/C (second compound 10 µM, first compound 3.16 µM) 93.5%
5.03 µM: IC50 (second compound 0.1 µM)
5.92 µM: IC50 (second compound 3.16 µM)
5.4 µM: IC50 (second compound 0.316 µM)
5.82 µM: IC50 (second compound 1 µM)
active: viability, T/C (second compound 0.0316 µM, first compound 10 µM) 2.78% | viability, T/C (second compound 0.1 µM, first compound 10 µM) 4.23% | viability, T/C (second compound 0.316 µM, first compound 10 µM) 4.32% | viability, T/C (second compound 1 µM, first compound 10 µM) 4.79% | viability, T/C (second compound 3.16 µM, first compound 10 µM) 5.45% | viability, T/C (second compound 10 µM, first compound 10 µM) 6.8%
